Measurements published in ChEMBL document CHEMBL4507303, “Data for DCP probe TP-004” (2021).

Biological target: Endothelin-1 receptor (Homo sapiens, UniProt P25101)
Experiment: Inhibition of [125I]-endothelin-1 binding to EDNRA; call rule not given here

Sequence of Endothelin-1 receptor (P25101 whole entry): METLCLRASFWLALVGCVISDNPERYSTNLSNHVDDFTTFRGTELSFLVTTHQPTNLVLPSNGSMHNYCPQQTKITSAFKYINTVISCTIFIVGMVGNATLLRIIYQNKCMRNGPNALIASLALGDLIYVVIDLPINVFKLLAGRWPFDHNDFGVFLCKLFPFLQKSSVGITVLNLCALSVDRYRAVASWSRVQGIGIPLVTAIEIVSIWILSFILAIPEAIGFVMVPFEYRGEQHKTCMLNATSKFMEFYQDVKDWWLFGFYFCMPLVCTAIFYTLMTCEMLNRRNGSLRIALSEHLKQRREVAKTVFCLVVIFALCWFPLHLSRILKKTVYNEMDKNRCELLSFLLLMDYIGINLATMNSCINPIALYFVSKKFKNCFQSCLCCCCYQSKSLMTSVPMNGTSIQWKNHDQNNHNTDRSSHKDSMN

IC50: > 10 µM (not active)
SMILES: FC(F)(F)c1cc(-c2ccccc2)c2nncn2c1 [TPn-004]
